PubChem BioAssay (NCI)
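Test compounds were applied to cells in 96-well plates for 48 hours at 5 doses. GI50: concentration for 50% inhibition of growth. TGI: concentration producing complete growth inhibition.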

Assays:
Experiment in all cases: NCI anticancer screen, dose series, 48 h
[1] = test system: T-47D breast
[2] = test system: SNB-75 CNS
[3] = test system: SK-MEL-28 melanoma
[4] = test system: HOP-62 NSCLC
[5] = test system: HCC-2998 colon
[6] = test system: HT29 colon
[7] = test system: ACHN renal
[8] = test system: MOLT-4 leukemia
[9] = test system: HOP-92 NSCLC
[10] = test system: K-562 leukemia
[11] = test system: RXF 393 renal
[12] = test system: OVCAR-8 ovarian
[13] = test system: EKVX NSCLC
[14] = test system: HL-60(TB) leukemia
[15] = test system: UACC-62 melanoma
[16] = test system: NCI-H226 lung
[17] = test system: SR leukemia
[18] = test system: BT-549 breast
[19] = test system: SF-539 CNS
[20] = test system: CCRF-CEM leukemia
[21] = test system: SK-OV-3 ovarian
[22] = test system: DU-145 prostate
[23] = test system: M14 melanoma
[24] = test system: CAKI-1 renal
[25] = test system: SF-295 CNS
[26] = test system: PC-3 prostate
[27] = test system: SK-MEL-2 melanoma
[28] = test system: NCI-H23 lung
[29] = test system: U251 CNS
[30] = test system: A549 NSCLC
[31] = test system: UACC-257 melanoma
[32] = test system: TK-10 renal
[33] = test system: SF-268 CNS
[34] = test system: NCI-H460 lung
[35] = test system: SK-MEL-5 melanoma
[36] = test system: A498 renal
[37] = test system: OVCAR-5 ovarian
[38] = test system: NCI/ADR-RES ovarian
[39] = test system: SNB-19 CNS
[40] = test system: OVCAR-3 ovarian
[41] = test system: COLO 205 colon
[42] = test system: RPMI-8226 leukemia
[43] = test system: LOX IMVI melanoma
[44] = test system: MDA-MB-435
[45] = test system: NCI-H522 lung
[46] = test system: MDA-MB-231 breast
[47] = test system: SN12C renal
[48] = test system: SW-620 colon
[49] = test system: UO-31 renal
[50] = test system: HCT-15 colon
[51] = test system: HCT-116 colon
[52] = test system: OVCAR-4 ovarian
[53] = test system: MALME-3M melanoma
[54] = test system: 786-0 renal
[55] = test system: HS 578T breast
[56] = test system: KM12 colon
[57] = test system: IGROV1 ovarian
[58] = test system: MCF7 breast

CC(=O)Nc1cc(F)cc(-c2ccc3[nH]cc(-c4ccccc4)c3n2)c1
GI50 [1]: 4.77 µM | TGI [1]: 29.1 µM | GI50 [2]: 4.93 µM | TGI [2]: 18.1 µM | GI50 [3]: 2.43 µM | TGI [3]: 6.13 µM | GI50 [4]: 4.2 µM | TGI [4]: 17.4 µM | GI50 [5]: 2.11 µM | TGI [5]: 4.71 µM | GI50 [6]: 2.21 µM | TGI [6]: 5.15 µM | GI50 [7]: 4.08 µM | TGI [7]: 14.3 µM | GI50 [8]: 2.26 µM | TGI [8]: 10.4 µM | GI50 [9]: 2.97 µM | TGI [9]: 9.63 µM | GI50 [10]: 2.79 µM | TGI [10]: 9.11 µM | GI50 [11]: 2.5 µM | TGI [11]: 7.97 µM | GI50 [12]: 6.16 µM | TGI [12]: 44.3 µM | GI50 [13]: 4.71 µM | TGI [13]: 21.5 µM | GI50 [14]: 2.72 µM | TGI [14]: 10.7 µM | GI50 [15]: 3.34 µM | TGI [15]: 11.9 µM | GI50 [16]: 6.31 µM | TGI [16]: 23 µM | GI50 [17]: 2.75 µM | TGI [17]: 8.4 µM | GI50 [18]: 4.78 µM | TGI [18]: 17 µM | GI50 [19]: 2.97 µM | TGI [19]: 10.7 µM | GI50 [20]: 3.42 µM | TGI [20]: 17.9 µM | GI50 [21]: 6.84 µM | TGI [21]: 21.3 µM | GI50 [22]: 5.52 µM | TGI [22]: 17.9 µM | GI50 [23]: 2.65 µM | TGI [23]: 7.85 µM | GI50 [24]: 3.32 µM | TGI [24]: 12.2 µM | GI50 [25]: 2.1 µM | TGI [25]: 5.16 µM | GI50 [26]: 3.33 µM | TGI [26]: 16 µM | GI50 [27]: 2.46 µM | TGI [27]: 6.8 µM | GI50 [28]: 4.98 µM | TGI [28]: 20 µM | GI50 [29]: 3.73 µM | TGI [29]: 16.1 µM | GI50 [30]: 3.6 µM | TGI [30]: 16.7 µM | GI50 [31]: 2.32 µM | TGI [31]: 5.96 µM | GI50 [32]: 6 µM | TGI [32]: 18.3 µM | GI50 [33]: 5.12 µM | TGI [33]: 22 µM | GI50 [34]: 3.37 µM | TGI [34]: 14.6 µM | GI50 [35]: 4.07 µM | TGI [35]: 15 µM | GI50 [36]: 3.75 µM | TGI [36]: 12.7 µM | GI50 [37]: 4.92 µM | TGI [37]: 22.1 µM | GI50 [38]: 3.99 µM | TGI [38]: 23 µM | GI50 [39]: 3.9 µM | TGI [39]: 13.9 µM | GI50 [40]: 5.08 µM | TGI [40]: 17.8 µM | GI50 [41]: 2.17 µM | TGI [41]: 4.69 µM | GI50 [42]: 3.08 µM | TGI [42]: 19.2 µM | GI50 [43]: 1.75 µM | TGI [43]: 3.39 µM | GI50 [44]: 4.05 µM | TGI [44]: 15.5 µM | GI50 [45]: 1.83 µM | TGI [45]: 4.11 µM | GI50 [46]: 3.46 µM | TGI [46]: 12.7 µM | GI50 [47]: 6.7 µM | TGI [47]: 21.9 µM | GI50 [48]: 3.31 µM | TGI [48]: 25.3 µM | GI50 [49]: 3.88 µM | TGI [49]: 14.8 µM | GI50 [50]: 2.08 µM | TGI [50]: 5.05 µM | GI50 [51]: 3.33 µM | TGI [51]: 12 µM | GI50 [52]: 5.44 µM | TGI [52]: 18.6 µM | GI50 [53]: 3.5 µM | TGI [53]: 12.8 µM | GI50 [54]: 2.22 µM | TGI [54]: 5.65 µM | GI50 [55]: 5.01 µM | TGI [55]: 47.7 µM | GI50 [56]: 1.87 µM | TGI [56]: 3.56 µM | GI50 [57]: 5.04 µM | TGI [57]: 21.1 µM | GI50 [58]: 2.9 µM | TGI [58]: 12.3 µM

CCNCCOc1ccc(/C(=C(/CC)c2ccc(Cl)cc2)c2ccc(OCCCN(C)C)cc2)cc1
GI50 [1]: 3.05 µM | TGI [1]: 7.55 µM | GI50 [2]: 3.68 µM | TGI [2]: 7.45 µM | GI50 [3]: 4.16 µM | TGI [3]: 7.78 µM | GI50 [4]: 4.24 µM | TGI [4]: 8.69 µM | GI50 [5]: 3.93 µM | TGI [5]: 7.72 µM | GI50 [6]: 0.98 µM | TGI [6]: 3.79 µM | GI50 [7]: 4.41 µM | TGI [7]: 8.02 µM | GI50 [8]: 4.56 µM | TGI [8]: 9.41 µM | GI50 [9]: 0.818 µM | TGI [9]: 4.47 µM | GI50 [10]: 0.933 µM | TGI [10]: 2.43 µM | GI50 [12]: 3.91 µM | TGI [12]: 7.64 µM | GI50 [13]: 4.32 µM | TGI [13]: 8.1 µM | GI50 [14]: 5.83 µM | TGI [14]: 11.1 µM | GI50 [15]: 4.48 µM | TGI [15]: 8.22 µM | GI50 [16]: 3.74 µM | TGI [16]: 7.59 µM | GI50 [17]: 2.98 µM | TGI [17]: 8.52 µM | GI50 [18]: 3.45 µM | TGI [18]: 7.16 µM | GI50 [19]: 3.97 µM | TGI [19]: 7.51 µM | GI50 [20]: 5.08 µM | TGI [20]: 11.4 µM | GI50 [21]: 4.36 µM | TGI [21]: 8.34 µM | GI50 [22]: 3.99 µM | TGI [22]: 7.5 µM | GI50 [23]: 4.3 µM | TGI [23]: 8.31 µM | GI50 [24]: 4.39 µM | TGI [24]: 8.05 µM | GI50 [25]: 4.44 µM | TGI [25]: 8.24 µM | GI50 [26]: 4.01 µM | TGI [26]: 9.01 µM | GI50 [27]: 4.13 µM | TGI [27]: 7.77 µM | GI50 [28]: 4.31 µM | TGI [28]: 8.15 µM | GI50 [29]: 3.17 µM | TGI [29]: 6.61 µM | GI50 [30]: 3.33 µM | TGI [30]: 7.15 µM | GI50 [31]: 4.04 µM | TGI [31]: 7.83 µM | GI50 [32]: 3.99 µM | TGI [32]: 8.07 µM | GI50 [33]: 3.89 µM | TGI [33]: 7.92 µM | GI50 [34]: 3.9 µM | TGI [34]: 7.6 µM | GI50 [35]: 4.51 µM | TGI [35]: 8.21 µM | GI50 [36]: 3.38 µM | TGI [36]: 6.98 µM | GI50 [37]: 4.07 µM | TGI [37]: 7.67 µM | GI50 [38]: 4.19 µM | TGI [38]: 8.08 µM | GI50 [39]: 4.45 µM | TGI [39]: 8.21 µM | GI50 [40]: 3.46 µM | TGI [40]: 6.87 µM | GI50 [41]: 3.13 µM | TGI [41]: 7.84 µM | GI50 [42]: 4.98 µM | TGI [42]: 13.5 µM | GI50 [43]: 3.72 µM | TGI [43]: 7.37 µM | GI50 [44]: 3.77 µM | TGI [44]: 7.34 µM | GI50 [45]: 4 µM | TGI [45]: 8.04 µM | GI50 [46]: 4.06 µM | TGI [46]: 7.73 µM | GI50 [47]: 3.84 µM | TGI [47]: 7.42 µM | GI50 [48]: 1.75 µM | TGI [48]: 5.24 µM | GI50 [49]: 3.32 µM | TGI [49]: 6.68 µM | GI50 [50]: 2.19 µM | TGI [50]: 5.54 µM | GI50 [51]: 2.78 µM | TGI [51]: 6.48 µM | GI50 [52]: 3.83 µM | TGI [52]: 8.07 µM | GI50 [53]: 3.95 µM | TGI [53]: 7.57 µM | GI50 [54]: 3.57 µM | TGI [54]: 7.44 µM | GI50 [55]: 3.26 µM | TGI [55]: 7.63 µM | GI50 [56]: 3.94 µM | TGI [56]: 7.59 µM | GI50 [57]: 4.17 µM | TGI [57]: 7.85 µM | GI50 [58]: 1.3 µM | TGI [58]: 4.94 µM
